The subject of data set [1] is root-knot nematodes (Meloidogyne javanica and M. arenaria). Nature of the data set: Egg production by root-knot nematodes on inoculated grapevines after foliar spray. The data set is classed as in vivo. As to conditions: 50 mg/l foliar spray, eggs in 20 ml sub-sample. The protocol:
(§1) Root-knot nematodes (Meloidogyne spp.) are cultured on tobacco or tomato. Root-knot nematode eggs are collected from these plants and hatched for inoculation of the grapevines using the standard method. Nematode eggs are collected from the inoculated grapevines by agitating clean root pieces in 0,8% NaOCl for four minutes. The roots are washed on a bank of three sieves and eggs collected on a 25 μm sieve. The eggs are washed into 100 ml of water and the number of eggs in a 20 ml sub-sample is estimated using a Doncaster dish. Galling is assessed in grapevine roots before egg counts. The roots are assessed with the naked eye for percentage of galls on the roots.
(§2) Uniformly developed rooted hardwood grapevine cuttings, variety Cabernet Sauvignon (Vitis vinifera), are planted into 20 cm diameter pots (one plant per pot) containing a pasteurised potting mix consisting of 50:50 coarse sand and peat. (Prior to pasteurisation, 300 g of fertiliser is added to each 50 liter bin of potting mix. The fertiliser consisted of 1000 g single superphosphate, 200 g ammonium nitrate, 150 g potassium sulphate, 100 g ferrous sulphate, 3000 g dolomite lime and 1500 g lime). The grapevines are grown in a glasshouse at 19-24° C. The plants are watered on alternate days, and fertilised weekly with a water soluble fertiliser. Grapevines are inoculated with 1000 juveniles of a mixed population of root-knot nematodes (Meloidogyne javanica and M. arenaria) 4 weeks after planting. The nematodes are pipetted into two 2cm deep holes at the base of the plant. Grapevine roots are harvested for nematode egg counts 10 weeks after inoculation (described below).
(§3) Acibenzolar-S-methyl (which is benzo(1,2,3)thiadiazole-7-carbothioic acid S-methyl ester, a plant activator from NOVARTIS) is formulated as a 50% water dispersible granule, diluted to 50 mg per liter of spray mixture and sprayed onto the leaves of the grapevines (using a hand-held sprayer) until the point of run-off.
a) cumulative applications: In the first series, acibenzolar-S-methyl is applied to the plants once, twice or three times. The single treatment of acibenzolar-S-methyl is applied one week before inoculation; the double treatment is applied one week before inoculation and at the same time as inoculation; for the third treatment acibenzolar-S-methyl is applied one week before inoculation, at inoculation and one week after inoculation.
(§4) b) single applications: A second series of experiments tested only single applications of acibenzolar-S-methyl either five days before inoculation, at the same time as inoculation or five days after inoculation. Both series of experiments have been completed twice. Water is used as the control treatment in each series.
(§5) The tables indicate the number of eggs produced by Meloidogyne spp in a 20 ml sub-sample, and the percentage galling on roots, resp.

Data set [2] has the same test system. Nature of the data set: Percentage galling on grapevine roots after foliar spray. The data set is classed as in vivo. The following applies: 50 mg/l foliar spray. The protocol:
as §1, §2, §3, §4, §5

The next data set relates to grapevines. Nature of the data set: Plant tolerance (phytotoxicity, appearance, fresh weights) of treated grapevines. The data set is classed as in vivo, Vitis vinifera (Cabernet Sauvignon). The following applies: 50 mg/l foliar spray. On the procedure:
as §2, §3

A further data set has as its system nematodes. Nature of the data set: Protection of other crops against attack by nematodes. The data set is classed as in vivo. As to conditions: applied on tomatoes, soybean, carrots, potatoes and beet. An excerpt:
Good effects for protecting plants against attack by nematodes are also found by applying acibenzolar-S-methyl on tomatoes, soybean, carrots, potatoes and beet.

For data set [3], the system named is Eggs and juvenile root-knot nematodes. Kind of data set: Direct effect on eggs and juvenile root-knot nematodes in aqueous solution. Set-up: species or system Meloidogyne spp. An excerpt:
Direct Effect of Acibenzolar-S-methyl onto Nematodes Eggs and juvenile root-knot nematodes are placed into aqueous solutions of acibenzolar-S-methyl (1, 10, 20 and 50 ppm active ingredient). No effect is observed on egg hatching and viability on those eggs and juvenils on penetration of those nematodes into tomato roots and on the number of eggs produced by those nematodes on tomatoes.

Where [4] appears, read: after exposure to aqueous solutions, 1, 10, 20 and 50 ppm active ingredient.

SMILES strings stand for the structures.

Take `CSC(=O)c1cccc2nnsc12` [acibenzolar-S-methyl, benzo(1,2,3)thiadiazole-7-carbothioic acid S-methyl ester]: the Number of eggs was 1520 (8) in data set [1] (one application (one week before inoculation), first experiment, 10 weeks after inoculation, control 4320); 150 (7) in data set [1] (one application (one week before inoculation), second experiment, control 240); 1400 (6) in data set [1] (three applications (one week before, at and one week after inoculation), first experiment, control 4320); 20 (7) in data set [1] (three applications (one week before, at and one week after inoculation), second experiment, control 240); 740 (7) in data set [1] (two applications (one week before and at inoculation), first experiment, control 4320); 100 (7) in data set [1] (two applications (one week before and at inoculation), second experiment, control 240). Moreover, the Mean percentage galling is 2.3 (8) % in data set [2] (single application at inoculation, first experiment, control 10); 3 (6) % in data set [2] (single application at inoculation, second experiment, control 5); 1.1 (8) % in data set [2] (single application five days after inoculation, first experiment, control 10); 4 (8) % in data set [2] (single application five days after inoculation, second experiment, control 5); 0.6 (8) % in data set [2] (single application five days before inoculation, first experiment, control 10); 2 (7) % in data set [2] (single application five days before inoculation, second experiment, control 5). In the data set with grapevines (versus water control), the “appearance of grapevines at harvest” value is recorded as “no significant differences”. Moreover, the phytotoxicity entry with grapevines (grapevines) is “No phytotoxicity”. Further, the “root fresh weights or fresh weight of the foliage and stems” value in the data set on grapevines (grapevines) is reported as “no difference”. Further, the “protecting plants against attack by nematodes” value in the data set on nematodes is “Good effects”. The “effect on number of eggs produced by the nematodes on tomatoes” value in data set [3] (setting [4]) is on record as “No effect”. In addition, the “effect on penetration of nematodes into tomato roots” value in data set [3] (setting [4]) is listed as “No effect”. In addition, in data set [3] (aqueous solutions, 1, 10, 20 and 50 ppm active ingredient), the “effect on egg hatching and viability of eggs and juveniles” value is given as “No effect”.
